The subject of one series is FHC. The experiment in a line: Cell proliferation, CCK-8, non-cancerous colon cell line. In kind it is cell-based. The settings on record: Homo sapiens, CCK-8, 48 h, Figure S6, mean ± s.e.m. of three experiments.
Series [1] concerns CRC cell lines (HCT116, HT29, SW480). The experiment in a line: LDH assay of cytotoxicity in CRC cell lines. Type of series: cell-based. To be noted: 48 h, pharmacological concentrations. The protocol:
Cell cytotoxicity was assessed by measuring LDH release from damaged or dead cells using a Cytotoxicity LDH Assay Kit-WST (Dojindo) following the manufacturer's instructions. Briefly, 5 × 10^3 cells per well were plated in 96-well plates. […] The final DMSO concentration in the medium was 0.1%. The amount of LDH leakage from the cells was determined by measuring the absorbance at 490 nm using a microplate reader (Synergy H4 Hybrid Reader, BioTek). The percentage of cytotoxicity was calculated as follows: [(test sample - low control)/ (high control - low control)] × 100, where low control is the absorbance of the culture medium without any added extract, and high control is the absorbance of the culture medium in which the cells were treated with 1% (v/v) Triton X-100 to achieve 100% LDH release. Each data point is presented as the mean ± s.d. of three independent experiments.

Series [2] relates to CRC cells (HCT116, HT29, and SW480). The experiment in a line: Calcein-AM/PI live-dead double staining. Type of series: cell-based. To be noted: 10 μM MDL-811, CRC cells. The protocol:
Live-dead cell staining was performed following the protocol of a Calcein-AM/PI Double Stain Kit (Yeasen). Briefly, 3 × 10^4 cells per well were seeded into 24-well plates. […] Then, cell images were acquired with a fluorescence microscope (Nikon Inverted Research Microscope Eclipse Ti). For each assay, five random fields of view per well were imaged at 10× magnification.

Series [3] has as its system adenomas in small intestines and colons of APC^min/+ mice. The series can be described thus: APC^min/+ model of spontaneous CRC. In kind it is in vivo, C57BL/6J-APC^min/+ mice. To be noted: 20 mg/kg intraperitoneal injection every two days for 12 weeks. How it is done:
C57BL/6J-APC^min/+ mice were obtained from Jackson Laboratory. […] The mice were sacrificed in the twentieth week. Tumor numbers were calculated, and tumors were imaged after longitudinal dissection of the small intestine and colon. Then, the small intestines and colons were sectioned and stained for immunohistochemistry.

Series [4] concerns HCT116, HT29, and LOVO cells. The experiment in a line: Combination drug treatment, CCK-8, Chou-Talalay combination index. In kind it is cell-based, human. To be noted: MDL-811 (5 to 10 μM) plus 1,25(OH)2D3 (1 to 10 μM), 48 h, three CRC cell lines; CI < 1 = synergism. How it is done: 1,25(OH)2D3 was purchased from TargetMol. For cell proliferation assays, 1,25(OH)2D3 was dissolved in DMSO, stored at -20 °C and protected from light. The maximum final DMSO concentration used in all treatment conditions was 0.25%. […] Then, cell proliferation assays were performed using the CCK-8 method. Combination effects were analyzed by the Chou-Talalay combination index (CI) method. The CI values and the fraction of cells affected values were generated using CompuSyn Version 1.0 software. CI values of < 1, = 1, and > 1 indicate synergism, additivity, and antagonism between the drugs, respectively.

Series [5] concerns the target T1, SIRT6 (Homo sapiens, UniProt Q8N6T7). The experiment in a line: Histone deacetylase enzyme selectivity assay. In kind it is biochemical. Further details: endogenous in cells; host or cells: HEK293T. The settings on record: SIRT6, selectivity panel. The protocol: Then, the reaction was initiated by adding the fluorogenic HDAC acetylated substrate (also adding NAD^+ in the deacetylase assays of sirtuins) at the indicated concentrations at room temperature or 37 °C for the indicated durations. After incubation, the reaction was stopped with an equal volume of buffer containing 1 mL of HDAC developer (peptidase activity, BPS Bioscience); 20 µM trichostatin was also included for the termination in the deacetylase assays of HDAC1-11. After the indicated time, fluorescence intensity was measured using a microplate reader (Envision, Perkin Elmer) at excitation and emission wavelengths of 355 nm and 460 nm, respectively. We also developed deacetylase assays for SIRT5 and SIRT7, which were not available at CEREP. For SIRT5 deacetylation assay, HEK293T cells were transiently transfected with empty vector or pcDNA3.1-SIRT5-HA (10 μg/10 cm plate) using Neofect™ DNA transfection reagent. 48 h after transfection, cells were lysed in ice-cold NP-40 buffer (50 mM Tris-HCl [pH 8.0], 150 mM NaCl, 1% NP-40, and protease inhibitor cocktail) with rotation at 4 °C for 30 min. A particle-free supernatant solution was obtained by centrifugation at 13,600 × g for 15 min at 4 °C. […] The data points at various concentrations were expressed as percent inhibition or activation effects of the control activity. […]

Series [6] has as its target T1, SIRT6. The series can be described thus: Histone H3 deacetylation in HEK293T cells (western blot). In kind it is cell-based. Further details: endogenous in cells; host or cells: HEK293T. To be noted: dose-dependent. How it is done: Western blot analysis was performed as described previously. […] After 48 h of treatment, the cells were lysed with 1× SDS and separated by SDS-PAGE, followed by incubation with specific primary antibodies overnight at 4 °C and then with HRP-linked anti-rabbit IgG (#7074, Cell Signaling Technology) or HRP-linked anti-mouse IgG (#7076, Cell Signaling Technology). An Immobilon Western Chemiluminescent HRP Substrate Kit (Merck Millipore) was used for detection. Information regarding the primary antibodies can be found in Table S6. Quantification of western blot data was performed using ImageJ V4.
(In general: Immunoblotting shows a protein as a band on a membrane.)

As usually defined, the IC50 is the midpoint of a concentration-inhibition curve. Higher therefore signals lower potency.

Bounds are passed on as bounds.

T1 sequence (Q8N6T7 whole entry): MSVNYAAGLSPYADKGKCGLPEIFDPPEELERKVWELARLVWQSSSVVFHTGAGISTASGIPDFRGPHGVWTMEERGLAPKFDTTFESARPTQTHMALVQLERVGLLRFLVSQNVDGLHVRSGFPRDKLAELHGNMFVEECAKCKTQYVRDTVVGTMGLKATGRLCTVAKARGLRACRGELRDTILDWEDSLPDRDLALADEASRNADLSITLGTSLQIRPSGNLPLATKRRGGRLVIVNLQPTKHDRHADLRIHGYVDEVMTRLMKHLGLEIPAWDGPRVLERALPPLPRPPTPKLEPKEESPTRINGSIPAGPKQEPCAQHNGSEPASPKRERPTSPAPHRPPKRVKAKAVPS

In turn, `Cc1cc(F)c(Br)cc1NS(=O)(=O)c1ccc(NS(=O)(=O)c2cc(Cl)cc(Cl)c2)cc1CN1CCOC[C@H]1C` [MDL-811] returned an IC50 in the series with FHC of 24.4 ± 0.5 µM. Further, the “cytotoxicity (LDH release)” value in series [1] was “minimal cytotoxic effect”. Moreover, in series [2], the “cell death, live-dead double staining” value is listed as “did not cause observable cell death”. In addition, in series [3], the “number and size of adenomas” value is “significantly reduced the number and size of adenomas”. In addition, the “CI values (Chou-Talalay)” value in series [4] is on record as < 1. For the same molecule, the Effect result on SIRT6 [5] was “Activation”. Further, the “deacetylation of H3K9Ac, H3K18Ac, and H3K56Ac” value on SIRT6 [6] was “significantly enhanced the deacetylation of SIRT6 (H3K9Ac, H3K18Ac, and H3K56Ac)”.

These data come from publication PMC7255010, “Small-molecule activating SIRT6 elicits therapeutic effects and synergistically promotes anti-tumor activity of vitamin D3 in colorectal cancer” (Theranostics, 2020).
